Experimental data: patent US12534469B2 (CHILDREN'S HOSPITAL MEDICAL CENTER, priority 2020, dated 2026)
Residue numbers refer to the chain shown, from its start.

Legend:
[1] = biological target: T1, FLT3 R834Q (Homo sapiens, UniProt P36888, R834Q); test: DiscoverX KINOMEscan competition binding assay, FLT3 R834Q
T1 construct: purchased DiscoverX (KINOMEscan); host or cells: E. coli (T7 phage) or HEK-293
T1 sequence (P36888 27-993 R834Q): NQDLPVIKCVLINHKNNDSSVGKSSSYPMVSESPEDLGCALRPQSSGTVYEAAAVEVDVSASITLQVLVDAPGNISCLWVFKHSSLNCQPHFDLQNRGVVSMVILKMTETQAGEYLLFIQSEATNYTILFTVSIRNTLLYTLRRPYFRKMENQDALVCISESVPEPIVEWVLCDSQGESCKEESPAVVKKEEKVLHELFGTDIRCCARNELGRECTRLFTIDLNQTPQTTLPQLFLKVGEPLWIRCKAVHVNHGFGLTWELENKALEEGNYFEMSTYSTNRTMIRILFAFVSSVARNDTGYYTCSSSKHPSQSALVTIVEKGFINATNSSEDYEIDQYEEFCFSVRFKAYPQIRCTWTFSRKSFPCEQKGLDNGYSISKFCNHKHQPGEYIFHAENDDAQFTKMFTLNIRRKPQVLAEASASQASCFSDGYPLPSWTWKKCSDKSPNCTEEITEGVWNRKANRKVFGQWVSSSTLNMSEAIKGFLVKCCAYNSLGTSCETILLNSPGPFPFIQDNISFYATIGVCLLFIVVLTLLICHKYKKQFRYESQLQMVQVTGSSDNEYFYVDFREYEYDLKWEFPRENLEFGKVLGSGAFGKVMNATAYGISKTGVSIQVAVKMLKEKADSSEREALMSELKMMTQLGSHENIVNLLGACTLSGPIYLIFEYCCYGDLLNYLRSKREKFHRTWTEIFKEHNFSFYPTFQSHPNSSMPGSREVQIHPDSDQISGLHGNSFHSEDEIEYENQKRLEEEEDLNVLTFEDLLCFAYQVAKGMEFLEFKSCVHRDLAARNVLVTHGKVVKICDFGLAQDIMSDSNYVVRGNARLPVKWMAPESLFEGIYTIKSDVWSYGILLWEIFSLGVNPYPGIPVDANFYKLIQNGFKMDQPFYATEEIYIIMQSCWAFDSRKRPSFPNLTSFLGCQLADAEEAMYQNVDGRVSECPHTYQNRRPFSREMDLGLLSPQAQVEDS
Source text: (§1) Kinase binding data were obtained for various exemplary compounds prepared according to Examples 1-25 using the DiscoverX KINOMEscan® active site-directed competition binding site-directed assay protocol described below. […] As a result, the data report thermodynamic interaction affinities (Kd values), rather than IC50 values that are dependent on ATP concentrations. The assay uses a DNA-tagged version of the protein kinase, and an immobilized ligand bound to a solid support. Compounds that directly or indirectly prevent kinase binding to the immobilized ligand reduce the amount of kinase captured on the solid support, which is detected using an ultra-sensitive qPCR method. Affinity constants reported from the assay have been reported to be independent of the immobilized ligand used that is coupled to the solid support (See supplemental information in Fabian, M. A. et. al., (2005) Nat. Biotechnol. 23, 329-336; Wodicka, L. M. et. al., (2010) Chem. Biol. 17, 1241-1249.)
(§2) Kinase-tagged T7 phage strains were prepared in an E. coli host derived from the BL21 strain. E. coli were grown to log-phase and infected with T7 phage and incubated with shaking at 32° C. until lysis. The lysates were centrifuged and filtered to remove cell debris. The remaining kinases were produced in HEK-293 cells and subsequently tagged with DNA for qPCR detection. […] The liganded beads were blocked with excess biotin and washed with blocking buffer (SeaBlock (Pierce), 1% BSA, 0.05% Tween 20, 1 mM DTT) to remove unbound ligand and to reduce non-specific binding. […] Test compounds were prepared as 111× stocks in 100% DMSO. Kds were determined using an 11-point 3-fold compound dilution series with three DMSO control points. […] The compounds were then diluted directly into the assays such that the final concentration of DMSO was 0.9%. All reactions were performed in polypropylene 384-well plates. Each was a final volume of 0.02 mL. […] The kinase concentration in the eluates was measured by qPCR.
(§3) Binding constants (Kds) were calculated with a standard dose-response curve using the Hill equation. […]

[2] = biological target: T2, FLT3 D835V (Homo sapiens, UniProt P36888, D835V); test: DiscoverX KINOMEscan competition binding assay, FLT3 D835V
T2 construct: purchased DiscoverX (KINOMEscan); host or cells: E. coli (T7 phage) or HEK-293
T2 sequence (P36888 27-993 D835V): T1 sequence (P36888 27-993 R834Q) with Q808R, D809V
Source text: as §1, §2, §3

Structure (SMILES): COc1cc2ncc(-c3cccc(N[C@H]4CNCC[C@@H]4F)n3)n2nc1C1CC1 [Compound 102, 6-(6-cyclopropyl-7-methoxyimidazo[1,2-b]pyridazin-3-yl)-N-((3S,4S)-4-fluoropiperidin-3-yl)pyridin-2-amine]
- Kd [1]: 0.61 nM
- Kd [2]: 0.11 nM

Structure (SMILES): COc1cc2ncc(-c3cccc(N[C@@H]4CCNC4)n3)n2nc1C1CC1 [Compound 97, (R)-6-(6-cyclopropyl-7-methoxyimidazo[1,2-b]pyridazin-3-yl)-N-(pyrrolidin-3-yl)pyridin-2-amine]
- Kd [1]: 0.8 nM
- Kd [2]: 0.067 nM

Structure (SMILES): COc1cc2ncc(-c3cccc(N[C@H]4CNC[C@@H]4F)n3)n2nc1C1CC1 [Compound 96, 6-(6-cyclopropyl-7-methoxyimidazo[1,2-b]pyridazin-3-yl)-N-((3S,4S)-4-fluoropyrrolidin-3-yl)pyridin-2-amine]
- Kd [1]: 1.6 nM
- Kd [2]: 0.12 nM
